Assay results: US20210171576A1, “METHODS FOR TREATING CANCER WITH ACYLDEPSIPEPTIDE ANALOGS” (priority 2018, published 2021)
Where a SMILES comes first, the peptide text is derived from it. Bridges are numbered along the chain shown (N, C = ends). [ ]: non-standard residue; d: D form. The star is where a group is joined. Octatrienoyl(2E,4E,6E) = C/C=C/C=C/C=C/C(=O)*; Phe(3,5-F2) = N[C@@H](Cc1cc(F)cc(F)c1)C(=O)O; Pip(4S-Me) = C[C@H]1CCN[C@H](C(=O)O)C1; Hexadienoyl(2E,4E) = C/C=C/C=C/C(=O)*; Pro(4R-Me) = C[C@H]1CN[C@H](C(=O)O)C1; Tiq1c(1S) = O=C(O)[C@H]1NCCc2ccccc21; Bta = N[C@@H](Cc1csc2ccccc12)C(=O)O; Heptenoyl(2E) = CCCC/C=C/C(=O)*; Cha = N[C@@H](CC1CCCCC1)C(=O)O; aThr = C[C@H](O)[C@H](N)C(=O)O; Pip = O=C(O)[C@@H]1CCCCN1; X2 = O=C(/C=C/CC1CCCCC1)*; NMeA = CN[C@@H](C)C(=O)O; X11 = O=C(/C=C/C=C/CO)*; Cbz = O=C(OCc1ccccc1)*; Boc = CC(C)(C)OC(=O)*; X4 = CCCCC/C=C/C(=O)*; X6 = CCCC/C=C\C(=O)*; X5 = CCCCCC#CC(=O)*; X7 = CCC/C=C\C(=O)*; X8 = CCC/C=C/C(=O)*; X10 = CCCC#CC(=O)*

Molecular target: T1, human mitochondrial CIpP (HsCIpP) (Homo sapiens, UniProt Q16740)
T1 construct: made in house; host or cells: E. coli SG1146 (BL21(DE3) ΔclpP::cat)
Assay: Screen of ADEP analogs against HsCIpP: relative degradation (RD) index, casein-FITC degradation relative to E. coli CIpAP
Format: biochemical
Set-up: key: casein-FITC degradation by HsClpP relative to EcClpAP
Conditions: for Hs RD25: RD value at 25 μM of the ADEP analog, measure of ability to activate HsCIpP; for Hs RD5: RD value at 5 μM of the ADEP analog; for Hs RD1: RD value at 1 μM of the ADEP analog
Excerpt: Structural analogs of acyldepsipeptide (ADEP) (Goodreid et al., 2016) that were previously developed as potential antibiotics against bacterial CIpP were screened and assessed for their ability to activate and dysregulate the protease activity of HsCIpP, by measuring their relative degradation (RD) index. Note that ADEP-28 was also previously reported by Carney et al. (2014). Details of the experimental protocol have been described in Leung et al., 2011. The RD index is defined as follows: […]
Δφ is the change in fluorescence after 6 hr of starting the reaction measured using 485 nm excitation and 535 nm emission, which primarily detects the signal from casein-FITC. E. coli CIpAP was used as a benchmark for maximum CIpP proteolytic activity. The CIpP in the numerator can be from any other organism. RD25 measurements refer to the measurement in the presence of 25 μM compound. All ADEP analogs were first screened at 25 μM, and their RD25 scores were calculated using the above formula and method as described in Leung et al., 2011 (FIG. 1A). Those that achieved RD25≥0.87 were screened a second time at 5 μM, followed by calculation of their RD5 scores. The top analogs with RD5≥0.74 were screened a third time at 1 μM, followed by calculation of their RD1 scores (FIG. 1B).
To identify ADEP analogs that allow HsCIpP to degrade folded proteins independent of HsCIpX+ATP (i.e., that activate or dysregulate HsCIpP), the inventors employed the in vitro screening method that was used for identifying small molecule activators of Escherichia coli CIpP (EcCIpP) (Leung et al., 2011). In this approach, the ability of HsCIpP to degrade FITC-labeled casein (casein-FITC) was measured and compared to the ability of EcCIpAP to degrade casein-FITC. This is quantitatively expressed as relative degradation (RD) index (Leung et al., 2011).

T1 sequence (Q16740 57-277): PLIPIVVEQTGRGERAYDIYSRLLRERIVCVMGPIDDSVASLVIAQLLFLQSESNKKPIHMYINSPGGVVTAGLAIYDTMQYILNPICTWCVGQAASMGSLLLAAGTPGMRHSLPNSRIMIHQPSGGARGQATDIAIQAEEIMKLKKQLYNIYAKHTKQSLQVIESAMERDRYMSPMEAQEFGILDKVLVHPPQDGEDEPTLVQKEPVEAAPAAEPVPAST

| Hs RD25 | Hs RD5 | Hs RD1 | Structure (SMILES) |
| --- | --- | --- | --- |
| 0.00 |  |  | C[C@@H]1NC(=O)[C@H](C)N(C)C(=O)[C@@H]2CCCN2C(=O)[C@@H](NC(=O)[C@@H](N)Cc2ccccc2)COC(=O)[C@@H]2CCCN2C1=O [ADEP-40] (H-FSP[NMeA]AP; ester 2-C) |
| 0.64 |  |  | CCCCCC#CC(=O)N[C@@H](Cc1ccccc1)C(=O)N[C@H]1COC(=O)[C@@H]2CCCN2C(=O)[C@H](C)NC(=O)[C@H](C)N(C)C(=O)[C@@H]2CCCN2C1=O [ADEP-27] (X5-FSP[NMeA]AP; ester 2-C) |
| 0.98 | 0.69 |  | C/C=C/C=C/C=C/C(=O)N[C@@H](Cc1ccccc1)C(=O)N[C@H]1COC(=O)[C@@H]2C[C@@H](C)CN2C(=O)[C@H](C)NC(=O)[C@H](C)N(C)C(=O)[C@@H]2CCCN2C1=O [ADEP-05] ({Octatrienoyl(2E,4E,6E)}-FSP[NMeA]A[Pro(4R-Me)]; ester 2-C) |
| 1.05 | 0.94 | 0.64 | CCCC/C=C/C(=O)N[C@@H](Cc1cc(F)cc(F)c1)C(=O)N[C@H]1COC(=O)[C@@H]2C[C@@H](C)CN2C(=O)[C@H](C)NC(=O)[C@H](C)N(C)C(=O)[C@@H]2CCCN2C1=O [ADEP-06] ({Heptenoyl(2E)}-[Phe(3,5-F2)]SP[NMeA]A[Pro(4R-Me)]; ester 2-C) |
| 0.00 |  |  | C[C@@H]1NC(=O)[C@H](C)N(C)C(=O)[C@@H]2CCCN2C(=O)[C@@H](NC(=O)[C@H](Cc2ccccc2)NC(=O)OC(C)(C)C)COC(=O)[C@@H]2CCCN2C1=O [ADEP-34] (Boc-FSP[NMeA]AP; ester 2-C) |
| 0.97 | 0.52 |  | C/C=C/C=C/C=C/C(=O)N[C@@H](Cc1ccccc1)C(=O)N[C@H]1COC(=O)[C@@H]2CCCN2C(=O)[C@H](C)NC(=O)[C@H](C)N(C)C(=O)[C@@H]2CCCN2C1=O [ADEP-08] ({Octatrienoyl(2E,4E,6E)}-FSP[NMeA]AP; ester 2-C) |
| 0.34 |  |  | CCCC/C=C\C(=O)N[C@@H](Cc1ccccc1)C(=O)N[C@H]1COC(=O)[C@@H]2CCCN2C(=O)[C@H](C)NC(=O)[C@H](C)N(C)C(=O)[C@@H]2CCCN2C1=O [ADEP-19] (X6-FSP[NMeA]AP; ester 2-C) |
| 1.05 | 0.92 | 0.58 | CCCC/C=C/C(=O)N[C@@H](Cc1cc(F)cc(F)c1)C(=O)N[C@H]1COC(=O)[C@@H]2C[C@@H](C)CN2C(=O)[C@H](C)NC(=O)[C@@H]2CCCN2C(=O)[C@@H]2CCCN2C1=O [ADEP-15] |
| 0.07 |  |  | CCC/C=C\C(=O)N[C@@H](Cc1ccccc1)C(=O)N[C@H]1COC(=O)[C@@H]2CCCN2C(=O)[C@H](C)NC(=O)[C@H](C)N(C)C(=O)[C@@H]2CCCN2C1=O [ADEP-33] (X7-FSP[NMeA]AP; ester 2-C) |
| 0.00 |  |  | C[C@@H]1C[C@H]2C(=O)OC[C@H](NC(=O)[C@H](Cc3ccccc3)NC(=O)OC(C)(C)C)C(=O)N3CCC[C@H]3C(=O)N(C)[C@@H](C)C(=O)N[C@@H](C)C(=O)N2C1 [ADEP-35] (Boc-FSP[NMeA]A[Pro(4R-Me)]; ester 2-C) |
| 1.07 | 0.72 |  | CCCCC/C=C/C(=O)N[C@@H](Cc1ccccc1)C(=O)N[C@H]1COC(=O)[C@@H]2CCCN2C(=O)[C@H](C)NC(=O)[C@H](C)N(C)C(=O)[C@@H]2CCCN2C1=O [ADEP-18] (X4-FSP[NMeA]AP; ester 2-C) |
| 0.95 | 0.89 | 0.76 | CCCC/C=C/C(=O)N[C@@H](Cc1cc(F)cc(F)c1)C(=O)N[C@@H]1C(=O)N2CCC[C@H]2C(=O)N2CC[C@H](C)C[C@H]2C(=O)N[C@@H](C)C(=O)N2C[C@H](C)C[C@H]2C(=O)O[C@H]1C [ADEP-38] ({Heptenoyl(2E)}-[Phe(3,5-F2)][aThr]P[Pip(4S-Me)]A[Pro(4R-Me)]; ester 2-C) |
| 0.92 | 0.87 | 0.76 | CCCC/C=C/C(=O)N[C@@H](Cc1cc(F)cc(F)c1)C(=O)N[C@@H]1C(=O)N2CCC[C@H]2C(=O)N2CCCC[C@H]2C(=O)N[C@@H](C)C(=O)N2C[C@H](C)C[C@H]2C(=O)O[C@H]1C [ADEP-29] ({Heptenoyl(2E)}-[Phe(3,5-F2)][aThr]P[Pip]A[Pro(4R-Me)]; ester 2-C) |
| 1.00 | 0.70 |  | CCCC/C=C/C(=O)N[C@@H](CC1CCCCC1)C(=O)N[C@H]1COC(=O)[C@@H]2C[C@@H](C)CN2C(=O)[C@H](C)NC(=O)[C@@H]2CCCCN2C(=O)[C@@H]2CCCN2C1=O [ADEP-21] ({Heptenoyl(2E)}-[Cha]SP[Pip]A[Pro(4R-Me)]; ester 2-C) |
| 0.00 |  |  | C[C@@H]1NC(=O)[C@H](C)N(C)C(=O)[C@@H]2CCCN2C(=O)[C@@H](NC(=O)[C@H](Cc2ccccc2)NC(=O)OCc2ccccc2)COC(=O)[C@@H]2CCCN2C1=O [ADEP-22] (Cbz-FSP[NMeA]AP; ester 2-C) |
| 0.12 |  |  | CCCC#CC(=O)N[C@@H](Cc1ccccc1)C(=O)N[C@H]1COC(=O)[C@@H]2CCCN2C(=O)[C@H](C)NC(=O)[C@H](C)N(C)C(=O)[C@@H]2CCCN2C1=O [ADEP-23] (X10-FSP[NMeA]AP; ester 2-C) |
| 0.76 |  |  | CCC/C=C/C(=O)N[C@@H](Cc1ccccc1)C(=O)N[C@H]1COC(=O)[C@@H]2CCCN2C(=O)[C@H](C)NC(=O)[C@H](C)N(C)C(=O)[C@@H]2CCCN2C1=O [ADEP-09] (X8-FSP[NMeA]AP; ester 2-C) |
| 0.66 |  |  | C/C=C/C=C/C(=O)N[C@@H](Cc1ccccc1)C(=O)N[C@H]1COC(=O)[C@@H]2C[C@@H](C)CN2C(=O)[C@H](C)NC(=O)[C@H](C)N(C)C(=O)[C@@H]2CCCN2C1=O [ADEP-03] ({Hexadienoyl(2E,4E)}-FSP[NMeA]A[Pro(4R-Me)]; ester 2-C) |
| 0.86 |  |  | C/C=C/C=C/C(=O)N[C@@H](Cc1ccccc1)C(=O)N[C@H]1COC(=O)[C@@H]2CCCN2C(=O)[C@H](C)NC(=O)[C@H](C)N(C)C(=O)[C@@H]2CCCN2C1=O [ADEP-26] ({Hexadienoyl(2E,4E)}-FSP[NMeA]AP; ester 2-C) |
| 1.07 | 0.85 | 0.44 | CCCC/C=C/C(=O)N[C@@H](Cc1ccccc1)C(=O)N[C@H]1COC(=O)[C@@H]2C[C@@H](C)CN2C(=O)[C@H](C)NC(=O)[C@@H]2CCCCN2C(=O)[C@@H]2CCCN2C1=O [ADEP-10] |
| 0.92 | 0.86 | 0.68 | CCCC/C=C/C(=O)N[C@@H](Cc1cc(F)cc(F)c1)C(=O)N[C@H]1COC(=O)[C@@H]2C[C@@H](C)CN2C(=O)[C@H](C)NC(=O)[C@@H]2c3ccccc3CCN2C(=O)[C@@H]2CCCN2C1=O [ADEP-37] ({Heptenoyl(2E)}-[Phe(3,5-F2)]SP[Tiq1c(1S)]A[Pro(4R-Me)]; ester 2-C) |
| 0.00 |  |  | C[C@@H]1C[C@H]2C(=O)OC[C@H](NC(=O)[C@@H](N)Cc3ccccc3)C(=O)N3CCC[C@H]3C(=O)N(C)[C@@H](C)C(=O)N[C@@H](C)C(=O)N2C1 [ADEP-31] (H-FSP[NMeA]A[Pro(4R-Me)]; ester 2-C) |
| 0.00 |  |  | C[C@@H]1C[C@H]2C(=O)OC[C@H](NC(=O)[C@H](Cc3ccccc3)NC(=O)/C=C/C=C/CO)C(=O)N3CCC[C@H]3C(=O)N(C)[C@@H](C)C(=O)N[C@@H](C)C(=O)N2C1 [ADEP-36] (X11-FSP[NMeA]A[Pro(4R-Me)]; ester 2-C) |
| 0.00 |  |  | C[C@@H]1NC(=O)[C@@H]2CCCCN2C(=O)[C@@H]2CCCN2C(=O)[C@@H](NC(=O)[C@H](Cc2ccccc2)NC(=O)c2ccc([N+](=O)[O-])cc2)COC(=O)[C@@H]2CCCN2C1=O [ADEP-24] |
| 1.02 | 0.91 | 0.86 | C[C@@H]1C[C@H]2C(=O)O[C@@H](C)[C@H](NC(=O)[C@H](Cc3cc(F)cc(F)c3)NC(=O)/C=C/CC3CCCCC3)C(=O)N3CCC[C@H]3C(=O)N3CCCC[C@H]3C(=O)N[C@@H](C)C(=O)N2C1 [ADEP-17] (X2-[Phe(3,5-F2)][aThr]P[Pip]A[Pro(4R-Me)]; ester 2-C) |
| 0.98 | 0.93 | 0.69 | CCCC/C=C/C(=O)N[C@@H](Cc1cc(F)cc(F)c1)C(=O)N[C@H]1COC(=O)[C@@H]2C[C@@H](C)CN2C(=O)[C@H](C)NC(=O)[C@@H]2C[C@@H](C)CCN2C(=O)[C@@H]2CCCN2C1=O [ADEP-30] ({Heptenoyl(2E)}-[Phe(3,5-F2)]SP[Pip(4S-Me)]A[Pro(4R-Me)]; ester 2-C) |
| 0.87 | 0.49 |  | CCCC/C=C/C(=O)N[C@@H](Cc1csc2ccccc12)C(=O)N[C@H]1COC(=O)[C@@H]2C[C@@H](C)CN2C(=O)[C@H](C)NC(=O)[C@@H]2CCCCN2C(=O)[C@@H]2CCCN2C1=O [ADEP-42] ({Heptenoyl(2E)}-[Bta]SP[Pip]A[Pro(4R-Me)]; ester 2-C) |
